Source: US11351151B2, “Compound having anticancer activity and preparation method and application” (3D Medicines (Beijing) Co., Ltd., priority 2016, dated 2022)
Values joined by “and” are separate entries in the source; they are usually repeats but may differ in a detail not shown here. Equal values may be shown once.

Experiments:
[1] = Liver homogenate incubation stability study; assay type: in vitro ADME, SD rat; details: for Residual intermediate: listed as intermediate
Method: (§1) The purpose of this example was to investigate the stability of the precursor Linifanib-C12-AA5 (compound 8) and the intermediate Linifanib-C12-Asp (compound 12) in plasma, liver homogenate and spleen homogenate (precursor Linifanib-C12-AA5 metabolizes into the intermediates Linifanib-C12-Asp and Linifanib; the intermediate Linifanib-C12-Asp is further metabolized to form Linifanib), and the metabolites were analyzed quantitatively, and the stability of the incubation system was verified with positive drugs, providing references for compound drug evaluation.
(§2) Experimental Procedure • 1. Animal blood was collected, blood samples were placed in EDTA anticoagulation tubes, centrifuged at 3000 g for 15 min at 4° C., plasma was separated, and 2 blood samples were mixed in equal volumes; • 2. Weighed and dissolved a certain amount of Linifanib-C12-AA5/Linifanib-C12-Asp in DMSO:MeOH (2:8), prepared 200 μM mother liquor by purity, and added the compound to the plasma to a final concentration of 2 μg/mL. The organic ratio in the system was not more than 0.5%. • 3. Incubated in a 37° C. water bath and set the sampling points to 0, 0.5, 1, 2, 4, 6, and 8 h. At each sampling point, 100 μL of each sample was added to 300 μL of acetonitrile (with internal standard) for precipitation, centrifuged at 12,000 rpm for 5 min, and 200 μL of supernatant was taken for analysis by LC-MS/MS. • 4. Configured the standard curve to quantify Linifanib, Linifanib-C12-Asp and residual Linifanib-C12-AA5. • 2.2 Linifanib-C12-AA5 and Linifanib-C12-Asp liver/spleen homogenate incubation stability study protocol Test animal • Type: SD rat; Quantity: 2 • Sex: Male; Weight: 200-250 g
(§3) Experimental Procedure • 1. Biological analysis method: established the biological analysis method of the compound Linifanib-C12-Asp and Linifanib; • 2. Rat liver/spleen was taken on the day of the experiment, two pieces were cut and mixed, and homogenized with 4 volumes (1 g: 4 mL) phosphate buffer (pH 7.4), and the temperature was controlled to not exceed 10° C. in the homogenization process; quantitative detection of protein, and controlled liver and spleen protein concentration. • 3. Added the drug Linifanib-C12-AA5, Linifanib-C12-Asp to the liver/spleen homogenate to a concentration of 1000 ng/mL, the incubation volume was 1 mL, and controlled the concentration of the organic solvent in the incubation system to not exceed 0.5%. • 4. Incubated in a 37° C. water bath and took 100 μL of samples at 0, 0.5, 1, 2, 4, 6, and 8 h, respectively. After pre-processing the samples with a definite method, the LC-MS/MS analysis was carried out. • 5. Prepared a standard curve with blank liver/spleen homogenate to quantify Linifanib-C12-Asp and Linifanib. 3. Stability Study Results

[2] = Spleen homogenate incubation stability study; assay type: in vitro ADME, SD rat
Method: as §1, §2, §3

[3] = system: 26 liver cancer cell lines; assay: Cell proliferation assay (Alamar Blue), summary over liver cancer lines; assay type: cell-based
Method: 1. Instruments and Materials • Thermo 311 CO2 incubator; Haier biosafety cabinet; Molecular Devices microplate reader; Xiangyi brand L530 desktop low speed centrifuge; Olympus IX51 inverted fluorescence microscope, DMEM, RPMI 1640, MEM, DMEM/F12 1:1 medium, Fetal bovine serum, 0.25% trypsin solution, phosphate buffer (Thermo Fisher Shanghai Co., Ltd.); sigma dimethyl sulfoxide (DMSO), resazurin; 54 commercial tumor cell lines (including 26 liver cancer cell lines). Experimental drugs: compounds 1-12 and active drug Linifanib; chemotherapeutic drug Doxorubicin (HY-15142; Shanghai Qianyuan Biomedical Technology Co., Ltd.).
2. […] The proportion and quantity of passage were determined by experimental needs. The ratio of subculture of this cell line was generally 1:2^˜1:3. • 2.2 inhibition effect on the proliferation of different tumor cell lines • Cell test: 54 cell lines in logarithmic growth phase were inoculated in 96-well culture plates at 500^˜1×10^4/well (the optimal seeding density of each cell line was determined in pre-experiment), After incubating at 37° C. for 4 h in a 5% CO2 humidification incubator, added 10 μL of compounds 1-12 or Linifanib to each well, and tested 9 drug concentration gradients for each compound (diluted from the highest concentration of the test by 3.16 times). […]

[4] = liver cancer patients, phase III; cited from earlier work

Cc1ccc(F)c(NC(=O)Nc2ccc(-c3cccc4c3c(N)nn4C(=O)CCCCCCCCCCCNC(=O)C[C@H](N)C(=O)O)cc2)c1 [Compound 12]
conversion into Linifanib in liver homogenate ([1]; liver homogenate): can be rapidly converted into Linifanib
Residual intermediate ([1]; liver homogenate, first experiment, 1000 ng/mL added, 0 h): 1130 ng/mL and 1260 ng/mL
Residual intermediate ([1]; liver homogenate, first experiment, 1000 ng/mL added, 0.5 h): 1000 ng/mL and 970 ng/mL
Residual intermediate ([1]; liver homogenate, first experiment, 1000 ng/mL added, 1 h): 1130 ng/mL and 946 ng/mL
Residual intermediate ([1]; liver homogenate, first experiment, 1000 ng/mL added, 2 h): 1000 ng/mL and 602 ng/mL
Residual intermediate ([1]; liver homogenate, first experiment, 1000 ng/mL added, 4 h): 294 ng/mL and 456 ng/mL
Residual intermediate ([1]; liver homogenate, first experiment, 1000 ng/mL added, 6 h): 452 ng/mL and 226 ng/mL
Residual intermediate ([1]; liver homogenate, second experiment, 0 h): 649 ng/mL and 634 ng/mL
Residual intermediate ([1]; liver homogenate, second experiment, 0.5 h): 452 ng/mL and 469 ng/mL
Residual intermediate ([1]; liver homogenate, second experiment, 6 h): 309 ng/mL and 340 ng/mL
Residual intermediate ([2]; first experiment, 1000 ng/mL added, 0 h, listed as intermediate): 900 ng/mL and 1020 ng/mL
Residual intermediate ([2]; first experiment, 1000 ng/mL added, 0.5 h): 959 ng/mL
Residual intermediate ([2]; first experiment, 1000 ng/mL added, 2 h, listed as intermediate): 755 ng/mL and 681 ng/mL
Residual intermediate ([2]; first experiment, 1000 ng/mL added, 4 h, listed as intermediate): 610 ng/mL and 589 ng/mL
Residual intermediate ([2]; first experiment, 1000 ng/mL added, 6 h, listed as intermediate): 470 ng/mL and 467 ng/mL
Residual intermediate ([2]; first experiment, 1000 ng/mL added, 8 h, listed as intermediate): 499 ng/mL and 506 ng/mL
Residual intermediate ([2]; second experiment, 0 h, listed as intermediate): 812 ng/mL and 844 ng/mL
Residual intermediate ([2]; second experiment, 0.5 h, listed as intermediate): 770 ng/mL and 744 ng/mL
Residual intermediate ([2]; second experiment, 6 h, listed as intermediate): 496 ng/mL and 483 ng/mL

Cc1ccc(F)c(NC(=O)Nc2ccc(-c3cccc4c3c(N)nn4C(=O)CCCCCCCCCCCNC(=O)C[C@H](N)C(=O)N[C@@H](CCC(=O)N[C@@H](CCC(=O)N[C@@H](CCC(=O)N[C@@H](CCC(=O)O)C(=O)O)C(=O)O)C(=O)O)C(=O)O)cc2)c1 [Compound 8]
conversion of prodrug into active drug, liver versus spleen homogenate ([1]; FIG. 5, comparison of liver and spleen homogenate): more specifically converted into an active drug in the liver
difference of IC50 values versus Linifanib ([3]; most of the liver cancer cell lines (15/26, 58%)): more than 8 times

Cc1ccc(F)c(NC(=O)Nc2ccc(-c3cccc4[nH]nc(N)c34)cc2)c1 [Linifanib, reference compound]
IC50 ([3]; nearly half of the liver cancer cell lines (12/26, 46%), moderately sensitive): < 5 µM
toxicity and side effects [4]: greater than Sorafenib
